Experimental data from PubChem BioAssay (NCI).
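Cells were grown in 96-well plates and exposed to each compound for 48 hours at five concentrations; endpoints were interpolated linearly between bracketing concentrations, or set to the highest concentration if not reached. At the GI50, growth is halved. Definition used: TGI = concentration required for complete inhibition of growth.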

How the values were obtained:
Experiment in all cases: NCI tumour cell line growth inhibition, 48 h
DU-145 prostate = tested on: DU-145 prostate
OVCAR-8 ovarian = tested on: OVCAR-8 ovarian
SF-268 CNS = tested on: SF-268 CNS
HOP-92 NSCLC = tested on: HOP-92 NSCLC
SN12C renal = tested on: SN12C renal
NCI/ADR-RES ovarian = tested on: NCI/ADR-RES ovarian
NCI-H460 lung = tested on: NCI-H460 lung
T-47D breast = tested on: T-47D breast
MDA-MB-231 breast = tested on: MDA-MB-231 breast
PC-3 prostate = tested on: PC-3 prostate

SMILES | GI50 (DU-145 prostate) [µM] | TGI (DU-145 prostate) [µM] | GI50 (OVCAR-8 ovarian) [µM] | TGI (OVCAR-8 ovarian) [µM] | GI50 (SF-268 CNS) [µM] | TGI (SF-268 CNS) [µM] | GI50 (HOP-92 NSCLC) [µM] | TGI (HOP-92 NSCLC) [µM] | GI50 (SN12C renal) [µM] | TGI (SN12C renal) [µM] | GI50 (NCI/ADR-RES ovarian) [µM] | TGI (NCI/ADR-RES ovarian) [µM] | GI50 (NCI-H460 lung) [µM] | TGI (NCI-H460 lung) [µM] | GI50 (T-47D breast) [µM] | TGI (T-47D breast) [µM] | GI50 (MDA-MB-231 breast) [µM] | TGI (MDA-MB-231 breast) [µM] | GI50 (PC-3 prostate) [µM] | TGI (PC-3 prostate) [µM]
CS(=O)(=O)Nc1ccc(N=Cc2c(O)[nH]c3ccccc23)cc1 | > 25 | > 25 | > 25 | > 25 | > 25 | > 25 | > 25 | > 25 | > 25 | > 25 | > 25 | > 25 | > 25 | > 25 | > 25 | > 25 | > 25 | > 25 | > 25 | > 25
CCN(CC)c1ccc(C(=N)c2ccc(N(C)C)cc2)cc1 | 1.7 | 7.18 | 1.94 | 6.51 | 0.22 | 5.42 | 1.05 | 4.22 | 2.36 | 9.14 | 0.187 | 2.94 | 1.69 | 10.8 | 1.27 | 9.42 | 1.33 | 3.87 | 0.284 | 7.05
